# Test results published in patent publication US20080051387A1, “TETRAHYDROPYRIDO[3,4-D]PYRIMIDINES AND RELATED ANALOGUES” (priority 2006, published 2008).
# Target: T1, chimeric human H3 receptor (Homo sapiens, UniProt Q9Y5N1)
# T1 construct: rat Galpha-i2 (Gnai2, rat); made in house; host or cells: Sf9 insect cells (baculovirus); P2 membranes
# Experiment: Chimeric human H3 receptor screening GTP binding assay (inhibition of histamine-stimulated GTP-gamma35S binding, Example 8)
# Format: biochemical
# Conditions: symbol ! in Ki; test compound 4 μM, 1 μM histamine; read-out: percent inhibition of agonist-induced GTP-gammaS binding to H3
# Description: This Example illustrates a representative screening assay for evaluating inhibition of histamine-stimulated GTP-gamma^35S binding. Such GTP binding activity can be used to identify H3 antagonists and inverse agonists. A compound analyzed in this assay is referred to herein as a “test compound,” and the initial identification of antagonists and inverse agonists is performed using a test compound concentration of 4 μM.
# Four independent baculoviral stocks (one directing the expression of the chimeric human H3 receptor and three directing the expression of each of the three subunits of a heterotrimeric G-protein) are used to infect a culture of Sƒ9 cells as described above. P2 membranes are prepared as described above, and are resuspended by Dounce homogenization (tight pestle) in GTP binding assay buffer (50 mM Tris pH 7.4, 120 mM NaCl, 5 mM MgCl2, 2 mM EGTA, 1 mg/ml BSA, 0.2 mg/ml bacitracin, 0.02 mg/ml aprotinin, 0.01 mg/ml saponin, 10 μM GDP) and added to assay tubes at a concentration of 35 μg protein/reaction tube. Non-radiolabeled test compounds are added to separate reactions at a concentration of 4 μM along with 1 μM histamine (agonist). Reactions are initiated by the addition of 125 pM GTP-gamma^35S with a final assay volume of 0.20 ml.
# After a 60-min incubation at room temperature, reactions are terminated by vacuum filtration over GF/C filters (pre-soaked in 50 mM Tris pH 7.4, 120 mM NaCl plus 0.1% BSA) followed by washing with ice-cold buffer (50 mM Tris pH 7.4, 120 mM NaCl). The amount of receptor-bound (and thereby membrane-bound) GTP-gamma^35S is determined by measuring the bound radioactivity, preferably by liquid scintillation spectrometry of the washed filters. Non-specific binding is determined using 10 uM GTP-gammaS and typically represents less than 5 percent of total binding. After subtraction of non-specific binding, data is expressed as percent inhibition of 1 μM histamine signal.
# Neutral antagonists are those test compounds that reduce the histamine-stimulated GTP binding activity towards, but not below, baseline levels. In contrast, in the absence of added histamine, inverse agonists reduce the GTP binding activity of the receptor-containing membranes below baseline. Any test compound that elevates GTP binding activity above baseline in the absence of added histamine in this assay is defined as having agonist activity.
# T1 sequence (Q9Y5N1 with tags, fused parts or gaps): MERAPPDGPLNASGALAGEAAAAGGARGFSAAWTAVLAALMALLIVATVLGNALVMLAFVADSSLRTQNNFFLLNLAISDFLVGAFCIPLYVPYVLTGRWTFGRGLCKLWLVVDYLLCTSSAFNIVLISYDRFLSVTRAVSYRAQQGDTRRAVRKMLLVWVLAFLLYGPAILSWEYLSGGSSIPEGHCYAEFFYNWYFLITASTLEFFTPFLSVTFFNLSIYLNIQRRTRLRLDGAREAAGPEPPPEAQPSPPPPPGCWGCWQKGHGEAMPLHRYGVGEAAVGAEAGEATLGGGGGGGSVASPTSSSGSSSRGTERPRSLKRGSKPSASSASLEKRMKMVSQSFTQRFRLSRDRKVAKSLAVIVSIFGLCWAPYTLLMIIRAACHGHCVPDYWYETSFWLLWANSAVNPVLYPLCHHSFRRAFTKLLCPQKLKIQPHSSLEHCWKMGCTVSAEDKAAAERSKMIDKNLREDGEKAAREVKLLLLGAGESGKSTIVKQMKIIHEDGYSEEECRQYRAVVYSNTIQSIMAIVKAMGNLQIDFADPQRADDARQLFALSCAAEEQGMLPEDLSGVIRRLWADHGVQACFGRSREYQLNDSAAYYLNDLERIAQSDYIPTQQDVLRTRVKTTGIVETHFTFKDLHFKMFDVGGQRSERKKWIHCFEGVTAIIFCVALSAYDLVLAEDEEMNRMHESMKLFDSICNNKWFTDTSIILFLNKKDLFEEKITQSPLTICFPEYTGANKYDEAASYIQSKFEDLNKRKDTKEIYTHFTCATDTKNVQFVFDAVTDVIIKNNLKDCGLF
row,inhibition at 4 µM [%],Compound
1,≥ 90,"COCCC(=O)N1CCc2c(ncnc2N2CCN(C3CCC3)CC2)C1 [Compound 51, 4-(4-cyclobutylpiperazin-1-yl)-7-(3-methoxypropanoyl)-5,6,7,8-tetrahydropyrido[3,4-d]pyrimidine]"
2,≥ 90,"O=C(C1CC1)N1CCc2c(ncnc2N2CCN(C3CCC3)CC2)C1 [Compound 52, 4-(4-cyclobutylpiperazin-1-yl)-7-(cyclopropylcarbonyl)-5,6,7,8-tetrahydropyrido[3,4-d]pyrimidine]"
3,≥ 90,"O=C(C1CCC1)N1CCc2c(ncnc2N2CCN(C3CCC3)CC2)C1 [Compound 53, 7-(cyclobutylcarbonyl)-4-(4-cyclobutylpiperazin-1-yl)-5,6,7,8-tetrahydropyrido[3,4-d]pyrimidine]"
4,≥ 90,"O=C(C1CCCC1)N1CCc2c(ncnc2N2CCN(C3CCC3)CC2)C1 [Compound 54, 4-(4-cyclobutylpiperazin-1-yl)-7-(cyclopentylcarbonyl)-5,6,7,8-tetrahydropyrido[3,4-d]pyrimidine]"
5,≥ 90,"O=C(C1CCCCC1)N1CCc2c(ncnc2N2CCN(C3CCC3)CC2)C1 [Compound 55, 4-(4-cyclobutylpiperazin-1-yl)-7-(cyclohexylcarbonyl)-5,6,7,8-tetrahydropyrido[3,4-d]pyrimidine]"
6,≥ 90,"O=C(C1CCCCCC1)N1CCc2c(ncnc2N2CCN(C3CCC3)CC2)C1 [Compound 56, 4-(4-cyclobutylpiperazin-1-yl)-7-(cycloheptylcarbonyl)-5,6,7,8-tetrahydropyrido[3,4-d]pyrimidine]"
7,≥ 90,"O=C(C1CCCO1)N1CCc2c(ncnc2N2CCN(C3CCC3)CC2)C1 (stereo not shown) [Compound 57, 4-(4-cyclobutylpiperazin-1-yl)-7-(tetrahydrofuran-2-ylcarbonyl)-5,6,7,8-tetrahydropyrido[3,4-d]pyrimidine]"
8,≥ 90,"O=C(C1CCOC1)N1CCc2c(ncnc2N2CCN(C3CCC3)CC2)C1 (stereo not shown) [Compound 58, 4-(4-cyclobutylpiperazin-1-yl)-7-(tetrahydrofuran-3-ylcarbonyl)-5,6,7,8-tetrahydropyrido[3,4-d]pyrimidine]"
9,≥ 90,"CC(C)C(=O)N1CCc2c(ncnc2N2CCN(C3CCC3)CC2)C1 [Compound 59, 4-(4-cyclobutylpiperazin-1-yl)-7-isobutyryl-5,6,7,8-tetrahydropyrido[3,4-d]pyrimidine]"
10,≥ 90,"CCC(C)C(=O)N1CCc2c(ncnc2N2CCN(C3CCC3)CC2)C1 (stereo not shown) [Compound 60, 4-(4-cyclobutylpiperazin-1-yl)-7-(2-methylbutanoyl)-5,6,7,8-tetrahydropyrido[3,4-d]pyrimidine]"
11,≥ 90,"CCCC(C)C(=O)N1CCc2c(ncnc2N2CCN(C3CCC3)CC2)C1 (stereo not shown) [Compound 61, 4-(4-cyclobutylpiperazin-1-yl)-7-(2-methylpentanoyl)-5,6,7,8-tetrahydropyrido[3,4-d]pyrimidine]"
12,≥ 90,"O=C(/C=C/c1ccccc1)N1CCc2c(ncnc2N2CCN(C3CCC3)CC2)C1 [Compound 62, 4-(4-cyclobutylpiperazin-1-yl)-7-[(2E)-3-phenylprop-2-enoyl]-5,6,7,8-tetrahydropyrido[3,4-d]pyrimidine]"
13,≥ 90,"COc1ccc(C(=O)N2CCc3c(ncnc3N3CCN(C4CCC4)CC3)C2)cc1Cl [Compound 63, 7-(3-chloro-4-methoxybenzoyl)-4-(4-cyclobutylpiperazin-1-yl)-5,6,7,8-tetrahydropyrido[3,4-d]pyrimidine]"
14,≥ 90,"Cc1ccc(C)c(C(=O)N2CCc3c(ncnc3N3CCN(C4CCC4)CC3)C2)c1 [Compound 64, 4-(4-cyclobutylpiperazin-1-yl)-7-(2,5-dimethylbenzoyl)-5,6,7,8-tetrahydropyrido[3,4-d]pyrimidine]"
15,≥ 90,"COCCOCC(=O)N1CCc2c(ncnc2N2CCN(C3CCC3)CC2)C1 [Compound 65, 4-(4-cyclobutylpiperazin-1-yl)-7-[(2-methoxyethoxy)acetyl]-5,6,7,8-tetrahydropyrido[3,4-d]pyrimidine]"
16,≥ 90,"Fc1ccccc1CN1CCc2c(ncnc2N2CCN(C3CCC3)CC2)C1 [Compound 66, 4-(4-cyclobutylpiperazin-1-yl)-7-(2-fluorobenzyl)-5,6,7,8-tetrahydropyrido[3,4-d]pyrimidine]"
17,≥ 90,"Fc1cccc(CN2CCc3c(ncnc3N3CCN(C4CCC4)CC3)C2)c1 [Compound 67, 4-(4-cyclobutylpiperazin-1-yl)-7-(3-fluorobenzyl)-5,6,7,8-tetrahydropyrido[3,4-d]pyrimidine]"

# Continued, compound first:
row,Compound,inhibition at 4 µM [%]
1,"CCn1nc(C)cc1C(=O)N1CCc2c(ncnc2N2CCN(C3CCC3)CC2)C1 [Compound 40, 4-(4-cyclobutylpiperazin-1-yl)-7-[(1-ethyl-3-methyl-1H-pyrazol-5-yl)carbonyl]-5,6,7,8-tetrahydropyrido[3,4-d]pyrimidine]",≥ 90
2,"CC(C)c1ccc(C(=O)N2CCc3c(ncnc3N3CCN(C4CCC4)CC3)C2)cc1 [Compound 41, 4-(4-cyclobutylpiperazin-1-yl)-7-(4-isopropylbenzoyl)-5,6,7,8-tetrahydropyrido[3,4-d]pyrimidine]",≥ 90
3,"CCC(=O)N1CCc2c(ncnc2N2CCN(C3CCC3)CC2)C1 [Compound 42, 4-(4-cyclobutylpiperazin-1-yl)-7-propionyl-5,6,7,8-tetrahydropyrido[3,4-d]pyrimidine]",≥ 90
4,"CCCC(=O)N1CCc2c(ncnc2N2CCN(C3CCC3)CC2)C1 [Compound 43, 7-butyryl-4-(4-cyclobutylpiperazin-1-yl)-5,6,7,8-tetrahydropyrido[3,4-d]pyrimidine]",≥ 90
5,"CCCCC(=O)N1CCc2c(ncnc2N2CCN(C3CCC3)CC2)C1 [Compound 44, 4-(4-cyclobutylpiperazin-1-yl)-7-pentanoyl-5,6,7,8-tetrahydropyrido[3,4-d]pyrimidine]",≥ 90
6,"CC(C)CC(=O)N1CCc2c(ncnc2N2CCN(C3CCC3)CC2)C1 [Compound 45, 4-(4-cyclobutylpiperazin-1-yl)-7-(3-methylbutanoyl)-5,6,7,8-tetrahydropyrido[3,4-d]pyrimidine]",≥ 90
7,"CC(C)CCC(=O)N1CCc2c(ncnc2N2CCN(C3CCC3)CC2)C1 [Compound 46, 4-(4-cyclobutylpiperazin-1-yl)-7-(4-methylpentanoyl)-5,6,7,8-tetrahydropyrido[3,4-d]pyrimidine]",≥ 90
8,"O=C(CC1CCCC1)N1CCc2c(ncnc2N2CCN(C3CCC3)CC2)C1 [Compound 47, 4-(4-cyclobutylpiperazin-1-yl)-7-(cyclopentylacetyl)-5,6,7,8-tetrahydropyrido[3,4-d]pyrimidine]",≥ 90
9,"O=C(CC1CCCCC1)N1CCc2c(ncnc2N2CCN(C3CCC3)CC2)C1 [Compound 48, 4-(4-cyclobutylpiperazin-1-yl)-7-(cyclohexylacetyl)-5,6,7,8-tetrahydropyrido[3,4-d]pyrimidine]",≥ 90
10,"O=C(CCC1CCCC1)N1CCc2c(ncnc2N2CCN(C3CCC3)CC2)C1 [Compound 49, 4-(4-cyclobutylpiperazin-1-yl)-7-(3-cyclopentylpropanoyl)-5,6,7,8-tetrahydropyrido[3,4-d]pyrimidine]",≥ 90
11,"O=C(Cc1ccccc1)N1CCc2c(ncnc2N2CCN(C3CCC3)CC2)C1 [Compound 50, 4-(4-cyclobutylpiperazin-1-yl)-7-(phenylacetyl)-5,6,7,8-tetrahydropyrido[3,4-d]pyrimidine]",≥ 90
